The text below walks through data of patent publication US8883801B2, “Substituted pyrazolo[1,5-a]pyrimidines as mTOR inhibitors” (Merck Sharp & Dohme Corp., priority 2010, dated 2014).

For assay [1], the system named is mTORC1 activity: phosphorylated 4E-BP1 Thr37/46 (p4E-BP1 Thr37/46) in PC3 cells. In words: mTOR target engagement assay, immunofluorescent cell-based, mTORC1 readout. The following applies: Homo sapiens, PC-3, 1.5 h, 90 min treatment, read-out: P4EBP1 IC50. In short, it runs like this: (§1)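 Read-out is immunofluorescence intensity, normalized to DMSO-only wells and fitted to a sigmoidal Hill equation for IC50. The mTORC1 arm probes phospho-4E-BP1 Thr37/46 and the mTORC2 arm phospho-AKT Ser473.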

Assay [2] relates to mTORC2 activity: phosphorylated AKT Ser473 (pAKT S473) in PC3 cells. In words: mTOR target engagement assay, immunofluorescent cell-based, mTORC2 readout. The following applies: Homo sapiens, PC-3, 1.5 h, 90 min treatment. An outline of the steps:
as §1

The target in assay [3] is human mTOR enzyme (Homo sapiens, UniProt P42345). In words: HTRF mTOR enzyme (kinase) assay. It is filed as biochemical. The settings on record: 5 μM ATP, 0.2 μM GST-S6K, read-out: hMTOR IC50. A general note: Time-resolved FRET reads energy transfer from a long-lived donor to a nearby acceptor.

Where two headings read alike, the source gives them in different places.

Sequence of human mTOR enzyme (P42345 1360-2549 limits assumed): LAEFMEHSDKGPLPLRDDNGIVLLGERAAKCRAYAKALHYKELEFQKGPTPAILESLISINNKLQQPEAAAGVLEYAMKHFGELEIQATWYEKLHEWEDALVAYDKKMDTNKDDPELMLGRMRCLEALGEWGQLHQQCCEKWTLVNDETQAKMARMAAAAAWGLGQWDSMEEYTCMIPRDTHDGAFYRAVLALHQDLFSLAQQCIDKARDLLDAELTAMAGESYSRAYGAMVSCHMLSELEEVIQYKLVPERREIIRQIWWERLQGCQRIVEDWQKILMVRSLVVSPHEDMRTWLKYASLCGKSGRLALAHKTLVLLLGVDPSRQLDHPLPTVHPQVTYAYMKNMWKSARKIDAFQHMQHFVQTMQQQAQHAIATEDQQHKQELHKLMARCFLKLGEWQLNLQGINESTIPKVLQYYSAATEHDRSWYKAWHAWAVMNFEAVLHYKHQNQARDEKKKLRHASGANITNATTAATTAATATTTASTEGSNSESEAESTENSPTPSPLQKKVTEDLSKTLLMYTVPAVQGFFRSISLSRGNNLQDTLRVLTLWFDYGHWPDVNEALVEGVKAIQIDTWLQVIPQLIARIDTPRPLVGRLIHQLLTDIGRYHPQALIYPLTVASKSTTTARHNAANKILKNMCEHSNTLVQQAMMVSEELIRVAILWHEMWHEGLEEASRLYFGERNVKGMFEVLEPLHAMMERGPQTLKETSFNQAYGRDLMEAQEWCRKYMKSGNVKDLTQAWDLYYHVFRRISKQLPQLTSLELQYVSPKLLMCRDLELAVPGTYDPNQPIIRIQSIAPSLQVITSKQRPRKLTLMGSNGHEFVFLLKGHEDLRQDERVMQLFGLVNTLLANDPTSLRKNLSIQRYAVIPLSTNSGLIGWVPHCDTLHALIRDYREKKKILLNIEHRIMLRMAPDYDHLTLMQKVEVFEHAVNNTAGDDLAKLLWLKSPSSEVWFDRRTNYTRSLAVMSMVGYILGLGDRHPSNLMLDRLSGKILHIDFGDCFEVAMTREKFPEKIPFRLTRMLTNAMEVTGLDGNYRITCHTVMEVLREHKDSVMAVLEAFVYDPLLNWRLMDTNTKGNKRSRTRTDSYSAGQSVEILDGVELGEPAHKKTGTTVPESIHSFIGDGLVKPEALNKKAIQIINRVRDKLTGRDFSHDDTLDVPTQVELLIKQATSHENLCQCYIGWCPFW

For the compound `COCCO[C@]1(C(=O)O)CC[C@@H](c2nc3c(-c4ccc(-c5nccs5)nc4)cnn3c(N)c2S(C)(=O)=O)CC1` [Compound 47, (1R,4R)-4-(7-amino-6-(methylsulfonyl)-3-(6-(thiazol-2-yl)pyridin-3-yl)pyrazolo[1,5-a]pyrimidin-5-yl)-1-(2-methoxyethoxy) cyclohexanecarboxylic acid], the IC50 (usually the concentration needed to halve the response being measured) is 2000 to 5000 nM in assay [1] (rated class), 2000 to 5000 nM in assay [2] (rated class) and 1 to 100 nM in assay [3] (rated class).

As for `COCCO[C@]1(C(=O)O)CC[C@@H](c2nc3c(-c4ccc(-c5ccc(OC)c(F)c5)nc4)cnn3c(N)c2Br)CC1` [Compound 68, (1R,4R)-4-(7-amino-6-bromo-3-(6-(3-fluoro-4-methoxyphenyl)-pyridin-3-yl)-pyrazolo[1,5-a]pyrimidin-5-yl)-1-(2-methoxyethoxy) cyclohexanecarboxylic acid], the figures for the IC50 in assay [1] (rated class), in assay [2] (rated class) and in assay [3] (rated class) were 2000 to 5000 nM, 2000 to 5000 nM and 1 to 100 nM, respectively.

Take `CO[C@]1(C(=O)O)CC[C@@H](c2nc3c(-c4ccc(-c5ccccc5)nc4)cnn3c(N)c2Br)CC1` [Compound 29, (1R,4R)-4-(7-amino-6-bromo-3-(6-phenylpyridin-3-yl)pyrazolo[1,5-a]pyrimidin-5-yl)-1-methoxycyclohexane-carboxylic acid]: the IC50 in assay [1] (rated class) lay in the range of 100 to 1000 nM; in assay [2] (rated class), 100 to 1000 nM; in assay [3] (rated class) it was 1 to 100 nM.

Turning to `COCCO[C@]1(c2noc(=O)[nH]2)CC[C@@H](c2nc3c(-c4cnn(-c5ccccc5)c4)cnn3c(N)c2S(C)(=O)=O)CC1` [Compound 121, 3-((1R,4R)-4-(7-amino-6-(methylsulfonyl)-3-(1-phenyl-1H-pyrazol-4-yl)pyrazolo[1,5-a]pyrimidin-5-yl)-1-(2-methoxyethoxy)cyclohexyl)-1,2,4-oxadiazol-5(4H)-one], the IC50 in assay [1] (rated class) lay within 100 to 1000 nM; in assay [2] (rated class) it was 100 to 1000 nM; in assay [3] (rated class) it was 1 to 100 nM.

`COCCO[C@]1(C(=O)c2nnc[nH]2)CC[C@@H](c2cc(N)n3ncc(-c4ccc(-c5ccccc5)nc4)c3n2)CC1` [Compound 126, ((1R,4R)-4-(7-amino-3-(6-phenylpyridin-3-yl)pyrazolo[1,5-a]pyrimidin-5-yl)-1-(2-methoxyethoxy)cyclohexyl)(4H-1,2,4-triazol-3-yl)methanone]: the half-maximal inhibitory concentration (IC50) in assay [1] (rated class) was in the range of 1000 to 2000 nM; in assay [2] (rated class), 100 to 1000 nM; in assay [3] (rated class), 1 to 100 nM.

For the compound `COCCO[C@]1(C(=O)NOC)CC[C@@H](c2nc3c(-c4cnn(-c5ccccc5)c4)cnn3c(N)c2S(C)(=O)=O)CC1` [Compound 89, (1R,4R)-4-(7-amino-6-(methylsulfonyl)-3-(1-phenyl-1H-pyrazol-4-yl)pyrazolo[1,5-a]pyrimidin-5-yl)-N-methoxy-1-(2-methoxyethoxy)-cyclohexane-carboxamide], the IC50 in assay [1] (rated class), in assay [2] (rated class) and in assay [3] (rated class) was 1 to 100 nM in each case.

With `COCCO[C@]1(C(=O)O)CC[C@@H](c2nc3c(-c4ccc(-c5ccccc5)nc4)cnn3c(N)c2S(C)(=O)=O)CC1` [Compound 44, (1R,4R)-4-(7-amino-6-(methylsulfonyl)-3-(6-phenylpyridin-3-yl)pyrazolo[1,5-a]pyrimidin-5-yl)-1-(2-methoxyethoxy) cyclohexanecarboxylic acid], the IC50 in assay [1] (rated class) was in the range of 100 to 1000 nM; in assay [2] (rated class), 100 to 1000 nM; in assay [3] (rated class), 1 to 100 nM.

As to `COCCO[C@]1(c2nnc[nH]2)CC[C@@H](c2nc3c(-c4cnn(-c5ccccc5)c4)cnn3c(N)c2S(C)(=O)=O)CC1` [Compound 127, 5-((1R,4R)-4-(2-methoxyethoxy)-4-(4H-1,2,4-triazol-3-yl)cyclohexyl)-6-(methylsulfonyl)-3-(1-phenyl-1H-pyrazol-4-yl)pyrazolo[1,5-a]pyrimidin-7-amine], the IC50 in assay [1] (rated class) is 100 to 1000 nM; in assay [2] (rated class) it was 100 to 1000 nM; in assay [3] (rated class) it was 1 to 100 nM.

As for `COCCO[C@]1(C(N)=O)CC[C@@H](c2nc3c(-c4ccc(-c5ccccc5)nc4)cnn3c(N)c2S(C)(=O)=O)CC1` [Compound 111], the IC50 was found to be 141 nM in assay [1] (numeric value), 48 nM in assay [2] (numeric value) and 1 nM in assay [3] (numeric value).

Take `COCCO[C@]1(C(=O)N(C)C)CC[C@@H](c2nc3c(-c4cnn(-c5ccccc5)c4)cnn3c(N)c2S(C)(=O)=O)CC1` [Compound 91, (1R,4R)-4-(7-amino-6-(methylsulfonyl)-3-(1-phenyl-1H-pyrazol-4-yl)pyrazolo[1,5-a]pyrimidin-5-yl)-1-(2-methoxyethoxy)-N,N-dimethylcyclohexane-carboxamide]: the IC50 in assay [1] (rated class) lay in the range of 1000 to 2000 nM; in assay [2] (rated class), 100 to 1000 nM; in assay [3] (rated class) it was 1 to 100 nM.

Take `COCCOC1(C(=O)NS(C)(=O)=O)CCC(c2nc3c(-c4cnn(-c5ccccc5)c4)cnn3c(N)c2S(C)(=O)=O)CC1` (stereo not drawn) [Compound 71, 4-(7-amino-6-(methylsulfonyl)-3-(1-phenyl-1H-pyrazol-4-yl)pyrazolo[1,5-a]pyrimidin-5-yl)-1-(2-methoxyethoxy)-N-(methylsulfonyl)cyclohexanecarboxamide]: the results for the IC50 in assay [1] (rated class), in assay [2] (rated class) and in assay [3] (rated class) were 1000 to 2000 nM, 1000 to 2000 nM and 1 to 100 nM, respectively.

As to `COCCO[C@]1(C(N)=O)CC[C@@H](c2nc3c(-c4cnn(-c5ccccc5)c4)cnn3c(N)c2S(C)(=O)=O)CC1` [Compound 110, (1R,4R)-4-(7-amino-6-(methylsulfonyl)-3-(1-phenyl-1H-pyrazol-4-yl)pyrazolo[1,5-a]pyrimidin-5-yl)-1-(2-methoxyethoxy)cyclohexanecarboxamide], the IC50 in assay [1] (rated class), in assay [2] (rated class) and in assay [3] (rated class) was 1 to 100 nM throughout.

On to `COCCO[C@]1(C(=O)NS(C)(=O)=O)CC[C@@H](c2nc3c(-c4cnn(-c5ccccc5)c4)cnn3c(N)c2C(C)=O)CC1` [Compound 70, (1R,4R)-4-(6-acetyl-7-amino-3-(1-phenyl-1H-pyrazol-4-yl)pyrazolo[1,5-a]pyrimidin-5-yl)-1-(2-methoxyethoxy)-N-(methylsulfonyl)cyclohexanecarboxamide], for which the IC50 in assay [1] (rated class) lay in the range of 100 to 1000 nM; in assay [2] (rated class) it was 100 to 1000 nM; in assay [3] (rated class), 1 to 100 nM.

With `COCCO[C@]1(C(=O)NOC)CC[C@@H](c2nc3c(-c4ccc(-c5ccccc5)nc4)cnn3c(N)c2S(C)(=O)=O)CC1` [Compound 105, (1R,4R)-4-(7-amino-6-(methylsulfonyl)-3-(6-phenylpyridin-3-yl)pyrazolo[1,5-a]pyrimidin-5-yl)-N-methoxy-1-(2-methoxyethoxy)-cyclohexane-carboxamide], the IC50 in assay [1] (rated class) is 100 to 1000 nM; in assay [2] (rated class) it was 1 to 100 nM; in assay [3] (rated class) it was 1 to 100 nM.

`CO[C@]1(C(=O)O)CC[C@H](c2nc3c(-c4ccc(-c5ccccc5)nc4)cnn3c(N)c2C(C)=O)CC1` [Compound 34, (1S,4S)-4-(6-acetyl-7-amino-3-(6-phenylpyridin-3-yl)pyrazolo[1,5-a]pyrimidin-5-yl)-1-methoxycyclohexanecarboxylic acid]: the IC50 in assay [1] (rated class) lay within 100 to 1000 nM; in assay [2] (rated class), 100 to 1000 nM; in assay [3] (rated class) it was 1 to 100 nM.

Regarding `CC(=O)c1c(C2CCC(O)(CO)CC2)nc2c(-c3ccc(-c4cscn4)nc3)cnn2c1N` (single isomer, unassigned) [Compound 144, 1-(7-amino-5-(4-hydroxy-4-(hydroxymethyl)-cyclohexyl)-3-(6-(thiazol-4-yl)pyridin-3-yl)pyrazolo[1,5-a]pyrimidin-6-yl)ethanone], the 50% inhibitory concentration (IC50) was 100 to 1000 nM in assay [1] (rated class), 100 to 1000 nM in assay [2] (rated class) and 1 to 100 nM in assay [3] (rated class).

Take `CO[C@]1(C(=O)O)CC[C@H](c2nc3c(-c4ccc(-c5ccccc5)nc4)cnn3c(N)c2Br)CC1` [Compound 28, (1S,4S)-4-(7-amino-6-bromo-3-(6-phenylpyridin-3-yl)pyrazolo[1,5-a]pyrimidin-5-yl)-1-methoxycyclohexanecarboxylic acid]: the IC50 in assay [1] (rated class) lay in the range of 100 to 1000 nM; in assay [2] (rated class), 1 to 100 nM; in assay [3] (rated class), 1 to 100 nM.

Consider `CC(=O)c1c(C2CCC(CO)(C(=O)O)CC2)nc2c(-c3ccc(-c4ccccc4)nc3)cnn2c1N` (stereo not drawn) [Compound 133, 4-(6-acetyl-7-amino-3-(6-phenylpyridin-3-yl)pyrazolo[1,5-a]pyrimidin-5-yl)-1-(hydroxymethyl)cyclohexanecarboxylic acid], for which the IC50 fell in the range of 100 to 1000 nM in assay [1] (rated class), 100 to 1000 nM in assay [2] (rated class) and 1 to 100 nM in assay [3] (rated class).

For the compound `COCCO[C@]1(c2nnn[nH]2)CC[C@@H](c2nc3c(-c4cnn(-c5ccccc5)c4)cnn3c(N)c2S(C)(=O)=O)CC1` [Compound 118, 5-((1R,4R)-4-(2-methoxyethoxy)-4-(1H-tetrazol-5-yl)cyclohexyl)-6-(methylsulfonyl)-3-(1-phenyl-1H-pyrazol-4-yl)pyrazolo[1,5-a]pyrimidin-7-amine], the IC50 was in the range of 100 to 1000 nM in assay [1] (rated class), 100 to 1000 nM in assay [2] (rated class) and 1 to 100 nM in assay [3] (rated class).

As for `CNC(=O)[C@]1(OCCOC)CC[C@H](c2nc3c(-c4cnn(-c5ccccc5)c4)cnn3c(N)c2S(C)(=O)=O)CC1` [Compound 90, (1R,4R)-4-(7-amino-6-(methylsulfonyl)-3-(1-phenyl-1H-pyrazol-4-yl)pyrazolo[1,5-a]pyrimidin-5-yl)-1-(2-methoxyethoxy)-N-methylcyclohexane-carboxamide], the IC50 is 1000 to 2000 nM in assay [1] (rated class), 100 to 1000 nM in assay [2] (rated class) and 1 to 100 nM in assay [3] (rated class).

Regarding `CC(=O)c1c(C2CCC(O)(CNS(C)(=O)=O)CC2)nc2c(-c3ccc(-c4ccccc4)nc3)cnn2c1N` (stereo not drawn) [Compound 160, N-((4-(6-acetyl-7-amino-3-(6-phenylpyridin-3-yl)pyrazolo[1,5-a]pyrimidin-5-yl)-1-hydroxycyclohexyl)methyl)methanesulfonamide], the results for the IC50 in assay [1] (rated class), in assay [2] (rated class) and in assay [3] (rated class) were 100 to 1000 nM, 100 to 1000 nM and 1 to 100 nM, respectively.
